Reference: US6429204B1, “Method of inhibiting cancer growth” (University of Miami, priority 1997, dated 2002)
Values after ≈ are worked out from the molar mass of the structure shown.

Key:
BPH-1 = assay: Cytotoxicity GI50 (MTT and thymidine incorporation), BPH-1; format: cell-based; settings: Homo sapiens
Description: To confirm this observation, we compared the cytotoxicities of CMT-3 and doxycycline for a panel of common human prostate cancer cell lines. Cytotoxicity was measured using the MTT assay (see above) and a cellular thymidine incorporation assay as described by Lokeshwar et al. (1995a). The 50% growth inhibition (GI50) values obtained using both assays were identical. As shown in the data summarized in Table 3, below, CMT-3 was two- to eight-fold more cytotoxic than doxycycline.
Growth inhibition was calculated from linear regression of the dose-response curves generated for each experiment using log(dose) vs. cell proliferation (% of control). Correlation coefficient (r) was always ≧0.95 (negative). Results are presented as Mean±SEM of at least three GI50 values calculated from each experiment.

[1] = MTS cytotoxicity assay, COLO 205; settings: human, COLO 205 colon carcinoma cells, percent cytotoxicity, two days
Description: A panel of chemically modified tetracycline compounds and doxycycline were tested for cytotoxicity against two carcinomas: COLO 205 (a human colon carcinoma-derived cell line) and the E-10 clone of MDA-MB-231 (a human breast carcinoma-derived cell line). Cytoxicity was measured using a conventional assay for viability with a tetrazolium salt (MTS). Cells were grown in media containing the CMTs at concentrations ranging from 5 μM to 100 μM for two days. The cells were then incubated with the MTS for several hours before removal of the supernatant medium for determination of formazan, which is generated only by the viable cells. Results are expressed as percent cytotoxicity, which is simply the percent decline in measured formazan concentration in the sampled medium.

[2] = test system: activation of MMPs by p-aminophenyl mercuric acetate; assay: Inhibition of APMA activation of MMPs in processed conditioned medium; format: biochemical
Description: In addition, the ability of doxycycline or CMT-3 to inhibit APMA activation of MMPs was tested. Processed culture-conditioned medium was incubated with the drugs for 1 hr before adding 1 mM APMA, and the incubation was continued thereafter for 2 hr. ^3H-gelatin was then added and the assy was continued for 4 hr. All assays were performed in duplicate tubes, and repeated at least twice.
MMP activity in the culture media was examined at 1 mM and 10 mM CaCl2, with no change in [Zn^2+] in the assay buffer. We employed 1 mM CaCl2, as this concentration is closer to physiological concentration, and 10 mM CaCl2, as it is reported to be the optimum concentration in in vitro assays (Woessner 1991). As is shown in Table 2, both CMT-3 and doxycycline inhibited in vitro activated gelatinases.

Dunning MAT LyLu tumor = assay: MAT LyLu tumor incidence, growth and metastasis, predosing 7 days before implant; format: in vivo, Copenhagen rats; settings: for tumor growth rate (time to reach tumor volume of 3 cm^3): 40 mg/kg predosing, animals with measurable tumors, control 15.9±2.0; for decrease in the number of lung metastases: summary b179, predosing context; for remission of palpable tumors (rats): two separate experiments
Description: Tumor Generation and Treatment: Dunning MAT LyLu cells were harvested from culture flasks, and a 0.5 mL suspension containing from 2×10^5 to 2×10^6 cells/mL was inoculated into the dorsal flank of adult Copenhagen rats (Harlan Sprague Dawley, Indianapolis, Ind.). The rats weighed 250-300 g, and were 90-100 days old. Tumors were detected by palpating the skin around the site of injection starting 3 days following implant of the tumor cells (Lokeshwar et al. 1995a).
Drug Treatment In Vivo: Doxycycline and CMT-3 were dissolved in a 2% aqueous solution of a soluble form of carboxymethyl cellulose (Sigma Cat. No. C-5678), and a fresh solution was made up daily. Rats were gavaged daily with 1 mL of the drug solution (concentrations specified below), or the vehicle (2% carboxymethyl cellulose). Tumor growth was recorded three times a week, and rats were weighed weekly. The effect of various treatments on tumor growth was monitored over time using calipers, and the volume approximated to an ellipsoid (i.e., volume=length×width×height×0.5236) (Lokeshwar et al. 1993b). Tumor growth rate was determined by regression analysis of tumor volume versus time, for each tumor-bearing rat. Mean tumor growth rate (time to reach a fixed volume) for each treatment group was then used to evaluate the statistical significance of treatment efficacy using the INSTAT statistical program (Ravitz Software, San Diego, Calif.). Rats were euthanized once the tumor volume reached ≧10 cm^3. At that time animals were necropsied, tumors and lungs were removed and fixed in Bouin's fixative. Macroscopic tumor foci on the lungs were counted under a dissecting microscope.
In another series of experiments, we examined whether predosing host animals with the drugs would affect tumor growth and metastasis. Daily gavage of control or drugs (doxycycline or CMT-3; 40 mg/kg) was begun 7 days prior to the injections of the MAT LyLu tumor cells (2×10^5 cells/animal) and continued for a total of 21 days.
Tumor growth rates were calculated from thrice-weekly measurement of tumor volume with linear regression analysis of log-transformed volume measurements (Dudak et al. 1996).

[3] = test system: HIV-related Kaposi's Sarcoma; assay: Oral dose escalation study in patients with Kaposi's Sarcoma; format: in vivo, human
Description: CMT-3 was administered orally, once daily, in a dose escalating fashion to 3-6 subjects per dose cohort. Patients with symptomatic visceral Kaposi's Sarcoma or severe tumor-associated edema were excluded. Antiretroviral therapy was permitted but not required. Study endpoints were grade 3 or grade 4 toxicity or progression of disease. Preliminary analysis was performed. Eighteen patients received CMT-3 in dosing cohorts of 25, 50 and 70 mg/m^2/day. The average age was 39 years (range, 25-57). Median CD4 count was 352 cells/mm^3 (range, 6-694). Prior therapy for Kaposi's Sarcoma was reported by 16 (89%) patients; prior antiretroviral therapy by 16 (89%) patients. Half of the patients had ≧50 lesions at baseline. Grade 3 or higher events, which were possibly/definitely related to study drug, were reported by 6 patients and consisted of photosensitivity, increased pain, headache, rash and pruritis.

[4] = test system: DU-145 and TSU-PR1 prostate cancer cell lines; assay: Prostate cancer cell viability/proliferation (trypan blue, MTT); format: cell-based, human; settings: Homo sapiens; 48 hr exposure; read-out: 50% inhibition dose (IC50), cell proliferation
Description: To determine the cytotoxicity of CMTs on prostate tumor cell lines, TSU-PR1 cells (and cells of other tumor cell lines) were exposed to various CMTs or to doxycycline for 24 hr or 48 hr in a complete medium. Cell viability (percent of live cells) was estimated by counting the cells following trypan blue staining. Cellular viability was also estimated by the tetrazolium dye reduction assay (MTT assay) (Lokeshwar et al. 1995b). Due to the aggressive proliferative capacity of cancer cells, it is assumed that viable cells are actively proliferating. Therefore, the measurement of viability was used as an estimate of proliferation. Results are expressed as Mean±SEM from three separate experiments.

| SMILES | GI50 (BPH-1) [µM] | cytotoxicity at 2 days, 5 µM [1] [%] | cytotoxicity at 2 days, 10 µM [1] [%] | cytotoxicity at 2 days, 20 µM [1] [%] | cytotoxicity at 2 days, 50 µM [1] [%] | cytotoxicity at 2 days, 100 µM [1] [%] | tumor growth rate (time to reach tumor volume of 3 cm^3) (Dunning MAT LyLu tumor) [days] | decrease in the number of lung metastases (Dunning MAT LyLu tumor) [%] | remission of palpable tumors (rats) (Dunning MAT LyLu tumor) [%] | also measured |
| --- | --- | --- | --- | --- | --- | --- | --- | --- | --- | --- |
| NC(=O)C1=C(O)CC2CC3Cc4cccc(O)c4C(=O)C3=C(O)C2(O)C1=O (centres unmarked) [CMT-3, 6-demethyl-6-deoxy-4-de(dimethylamino)tetracycline] | 10.5 ± 3.7 | 17 | 28.8 | 52 | 79 | 85.6 | 20.2 ± 3.5 | 58±8 | 30 | IC50, inhibition of activation of MMPs by APMA ([2]; 10 mM CaCl2): 1.0 µg/mL; IC50 ([2]; 10 mM CaCl2, value in brackets): 2.2 µM; tumor incidence lower than control or doxycycline groups by (Dunning MAT LyLu tumor; 40 mg/kg, predosing): 55%±18; tumor remission (inhibition of tumor incidence) (Dunning MAT LyLu tumor; 40 mg/kg, predosing): tumor remission (inhibition of tumor incidence) occurred; gain in body weights (Dunning MAT LyLu tumor; at termination (6-month post-treatment observation), control 3%): 12%; decrease in MTF versus controls (Dunning MAT LyLu tumor; predosing): 37.5%; MTF in treated animals (Dunning MAT LyLu tumor; predosing, animals with tumors ≧10 cm^3, controls 74.2±6.4): 46.3±6.7; tumor incidence (Dunning MAT LyLu tumor; preparation of CMT-3 of greater purity): 43%; Partial responses ([3]; 25 mg/m^2/day cohort): 2 patients; photosensitivity ([3]; 25 mg/m^2/day cohort): no photosensitivity was observed; Partial responses ([3]; 50 mg/m^2/day cohort): 2 patients; Partial responses ([3]; 70 mg/m^2/day cohort): 3 patients; Partial responses ([3]; all cohorts, eighteen patients, oral once daily): 7 patients; Grade 3 or higher events possibly/definitely related to study drug ([3]; eighteen patients, 25, 50 and 70 mg/m^2/day): 6 patients; tolerability ([3]; oral once daily, particularly 25 mg/m^2/day): well tolerated; IC50 [4]: 2.7 µg/mL (≈ 7.27 µM) |
| C[C@H]1c2cccc(O)c2C(=O)C2=C(O)[C@]3(O)C(=O)C(C(N)=O)=C(O)[C@@H](N(C)C)[C@@H]3[C@@H](O)[C@@H]21 [Doxycycline, 6α-deoxy-5-hydroxy-tetracycline, reference compound] | 21.3 ± 5.4 | 0 | 0 | 45.7 | 58.8 | 66.5 | 16.7 ± 1.9 | 33±7.0 | 20 | tumor incidence (Dunning MAT LyLu tumor; 40 mg/kg daily, begun 7 days before implant, separate experiments): > 90% |
